Assay results: patent publication US9776990B2, “Isoindolone derivatives” (AbbVie Inc., priority 2012, dated 2017)

Assays:
[1] = target: BRD4 (BDI_K57-E168) (Homo sapiens (Human), UniProt O60885); experiment: TR-FRET bromodomain binding assay, BRD4 first bromodomain; details: His-tagged BD1, 100 nM Alexa647 probe
In short: (§1)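 His-tagged BRD4 BD1 or BD2 (8 nM) with Eu-anti-His antibody (1 nM) and Alexa647-labelled BET-inhibitor probe (100 nM BDI, 30 nM BDII); 50 μM−0.85 nM compound, 2% DMSO, phosphate buffer pH 6.0, 1 h at room temperature. TR-FRET IC50 by 4-parameter fit, converted to Ki using probe Kd.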

[2] = target: BRD4 (BDII_E352-M457) (Homo sapiens (Human), UniProt O60885); experiment: TR-FRET bromodomain binding assay, BRD4 second bromodomain; details: His-tagged BD2, 30 nM Alexa647 probe
In short: as §1

[3] = tested on: MDAMB453; experiment: Proliferation panel assay, MDAMB453; assay type: cell-based; details: Homo sapiens, MDA-MB-453, 120 h; Breast, MDAMB453, 5 days; read-out: Cellular Proliferation EC50
Protocol: (§2) The impact of compounds of the Examples on cancer cell proliferation was determined using the breast cancer cell line MX-1 (ATCC) in a 3-day proliferation assay. MX-1 cells were maintained in RPMI supplemented with 10% FBS at 37 C.° and an atmosphere of 5% CO2. For compound testing, MX-1 cells were plated in 96-well black bottom plates at a density of 5000 cells/well in 90 μl of culture media and incubated at 37° overnight to allow cell adhesion and spreading. Compound dilution series were prepared in DMSO via a 3-fold serial dilution from 3 mM to 0.1 μM. […]
(§3) Luminescence readings from the Cell Titer Glo assay were normalized to the DMSO treated cells and analyzed using the GraphPad Prism software with sigmoidal curve fitting to obtain EC50s. The minimum significant ratio (MSR) was determined to evaluate assay reproducibility (Eastwood et al., (2006) J Biomol Screen, 11: 253-261). The overall MSR was determined to be 2.1 and a moving MSR (last six run MSR overtime) has been <2.
(§4) The compound of Example 40 was tested for its impact on proliferation of a panel of cancer cell line types (with specific cell lines tested) as set out in (Table 2). […] Cell proliferation data were analyzed as described above in the MX-1 proliferation assay to obtain the EC50 for the compounds reported in Table 2.

[4] = tested on: DLD-1; experiment: Proliferation panel assay, DLD-1; assay type: cell-based; details: Homo sapiens, 120 h; Colon, DLD-1, 5 days; read-out: Cellular Proliferation EC50
Protocol: as §2, §3, §4

[5] = tested on: D54MG; experiment: Proliferation panel assay, D54MG; assay type: cell-based; details: 120 h, Glioblastoma, 5 days, read-out: Cellular Proliferation EC50
Protocol: as §2, §3, §4

[6] = tested on: FaDu; experiment: Proliferation panel assay, FaDu; assay type: cell-based; details: Homo sapiens, 120 h, Head & Neck, 5 days, read-out: Cellular Proliferation EC50
Protocol: as §2, §3, §4

[7] = tested on: NCI-H929; experiment: Proliferation panel assay, NCI-H929; assay type: cell-based; details: Homo sapiens, 120 h; Multiple Myeloma, NCI-H929, 5 days; read-out: Cellular Proliferation EC50
Protocol: as §2, §3, §4

[8] = tested on: Ly18; experiment: Proliferation panel assay, Ly18; assay type: cell-based; details: 120 h; NHL, Ly18, 5 days; read-out: Cellular Proliferation EC50
Protocol: as §2, §3, §4

[9] = tested on: SK-LMS-1; experiment: Proliferation panel assay, SK-LMS-1; assay type: cell-based; details: Homo sapiens, 120 h; Sarcoma, SK-LMS-1, 5 days; read-out: Cellular Proliferation EC50
Protocol: as §2, §3, §4

How did the Ki [1] turn out when `Cc1[nH]c(-c2cc(NS(C)(=O)=O)ccc2Oc2ccccc2)c2c1C(=O)CCC2` [Example 40, N-[3-(3-methyl-4-oxo-4,5,6,7-tetrahydro-2H-isoindol-1-yl)-4-phenoxyphenyl]methanesulfonamide] was run?
The Ki was 15 nM.

And the Ki [2]?
The Ki was 43 nM.

What about the EC50 [3] of the same compound?
Its EC50 is 220 nM.

What about the EC50 [4] of the same compound?
Its EC50 is 450 nM.

And the EC50 [5]?
Its EC50 is 210 nM.

And the EC50 [6]?
Its EC50 is 180 nM.

What about the EC50 [7] of the same compound?
Its EC50 is 41 nM.

And the EC50 [8]?
Its EC50 is 370 nM.

And the EC50 [9]?
The EC50 was 176 nM.
